# In patent publication US5962314A, “Calcium receptor-active molecules” (priority 1997, dated 1999):
# “Also recorded” adds a separate entry of the source. Like-named read-outs stand apart in the source and are kept apart here.
# Experiments:
# Type in all cases: cell-based
# [1] = target: T1, bovine parathyroid cell calcium receptor (Bos taurus, UniProt P35384); assay: Cl- current in Xenopus oocytes expressing BoPCaR 1; conditions: for effect on inward currents: EGTA 100 μM, 9AC, A23187
# T1 construct: expressed in transfected cells; host or cells: Xenopus laevis oocytes injected with BoPCaR 1 cRNA
# T1 sequence (P35384 20-1085): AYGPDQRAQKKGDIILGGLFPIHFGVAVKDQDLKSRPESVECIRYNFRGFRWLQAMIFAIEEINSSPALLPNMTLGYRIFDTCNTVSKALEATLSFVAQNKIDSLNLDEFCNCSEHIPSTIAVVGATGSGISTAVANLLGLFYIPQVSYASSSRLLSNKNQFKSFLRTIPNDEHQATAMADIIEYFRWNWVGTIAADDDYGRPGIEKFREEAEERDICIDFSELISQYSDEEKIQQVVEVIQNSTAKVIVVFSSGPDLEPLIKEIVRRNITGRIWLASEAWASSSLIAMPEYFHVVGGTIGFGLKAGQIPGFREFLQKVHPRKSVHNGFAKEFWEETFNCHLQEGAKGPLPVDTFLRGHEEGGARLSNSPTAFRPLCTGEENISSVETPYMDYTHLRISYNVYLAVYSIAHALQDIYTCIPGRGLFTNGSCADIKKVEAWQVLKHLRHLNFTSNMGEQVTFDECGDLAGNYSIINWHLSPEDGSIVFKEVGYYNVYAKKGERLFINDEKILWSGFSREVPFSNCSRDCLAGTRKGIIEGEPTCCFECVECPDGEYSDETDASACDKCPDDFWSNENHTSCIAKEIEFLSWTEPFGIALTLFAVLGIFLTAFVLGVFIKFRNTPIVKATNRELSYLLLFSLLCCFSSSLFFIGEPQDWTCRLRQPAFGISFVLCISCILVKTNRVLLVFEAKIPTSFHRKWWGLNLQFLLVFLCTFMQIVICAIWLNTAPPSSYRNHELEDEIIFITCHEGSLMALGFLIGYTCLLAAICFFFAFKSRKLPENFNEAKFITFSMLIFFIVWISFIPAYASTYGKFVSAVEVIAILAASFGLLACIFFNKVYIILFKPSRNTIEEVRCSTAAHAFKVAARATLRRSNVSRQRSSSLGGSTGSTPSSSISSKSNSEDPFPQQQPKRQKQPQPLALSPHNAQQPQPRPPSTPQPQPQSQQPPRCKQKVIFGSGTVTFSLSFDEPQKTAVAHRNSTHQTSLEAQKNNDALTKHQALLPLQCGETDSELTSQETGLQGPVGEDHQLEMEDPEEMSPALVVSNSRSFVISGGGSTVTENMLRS
# Experimental: Several pharmacological and biochemical criteria were used to identify this clone as encoding a bona fide bovine parathyroid Ca^2+ receptor. […] These responses increased markedly over a period of one to four days after injection of the eggs with cRNA prepared from the BoPCaR 1 cDNA. Furthermore, the ranges of the concentrations of the two cations eliciting this response were very similar to those shown previously to act on bovine parathyroid cells in vitro.
# Xenopus oocytes were injected with BoPCaR 1, the 5.3 Kb cDNA encoding a bovine parathyroid cell calcium receptor as described in Example 25. After two to three days, Cl^- currents were examined in the oocytes using a two-electrode voltage clamp.
# Xenopus oocytes were injected with BoPCaR 1 as described in Example 25. After two to three days, Cl^- currents were examined in the oocytes using two electrode voltage clamp.
# [2] = test system: osteoclast calcium receptor; assay: [Ca2+]i in indo-1-loaded rat osteoclasts
# calcium receptor = target: T2, calcium receptor (Homo sapiens, UniProt P41180); assay: Xenopus oocytes injected with human parathyroid cell mRNA; conditions: hexacyclen 135 μM; neomycin 100 μM; NPS 382 5 mM
# T2 sequence (P41180 20-1078): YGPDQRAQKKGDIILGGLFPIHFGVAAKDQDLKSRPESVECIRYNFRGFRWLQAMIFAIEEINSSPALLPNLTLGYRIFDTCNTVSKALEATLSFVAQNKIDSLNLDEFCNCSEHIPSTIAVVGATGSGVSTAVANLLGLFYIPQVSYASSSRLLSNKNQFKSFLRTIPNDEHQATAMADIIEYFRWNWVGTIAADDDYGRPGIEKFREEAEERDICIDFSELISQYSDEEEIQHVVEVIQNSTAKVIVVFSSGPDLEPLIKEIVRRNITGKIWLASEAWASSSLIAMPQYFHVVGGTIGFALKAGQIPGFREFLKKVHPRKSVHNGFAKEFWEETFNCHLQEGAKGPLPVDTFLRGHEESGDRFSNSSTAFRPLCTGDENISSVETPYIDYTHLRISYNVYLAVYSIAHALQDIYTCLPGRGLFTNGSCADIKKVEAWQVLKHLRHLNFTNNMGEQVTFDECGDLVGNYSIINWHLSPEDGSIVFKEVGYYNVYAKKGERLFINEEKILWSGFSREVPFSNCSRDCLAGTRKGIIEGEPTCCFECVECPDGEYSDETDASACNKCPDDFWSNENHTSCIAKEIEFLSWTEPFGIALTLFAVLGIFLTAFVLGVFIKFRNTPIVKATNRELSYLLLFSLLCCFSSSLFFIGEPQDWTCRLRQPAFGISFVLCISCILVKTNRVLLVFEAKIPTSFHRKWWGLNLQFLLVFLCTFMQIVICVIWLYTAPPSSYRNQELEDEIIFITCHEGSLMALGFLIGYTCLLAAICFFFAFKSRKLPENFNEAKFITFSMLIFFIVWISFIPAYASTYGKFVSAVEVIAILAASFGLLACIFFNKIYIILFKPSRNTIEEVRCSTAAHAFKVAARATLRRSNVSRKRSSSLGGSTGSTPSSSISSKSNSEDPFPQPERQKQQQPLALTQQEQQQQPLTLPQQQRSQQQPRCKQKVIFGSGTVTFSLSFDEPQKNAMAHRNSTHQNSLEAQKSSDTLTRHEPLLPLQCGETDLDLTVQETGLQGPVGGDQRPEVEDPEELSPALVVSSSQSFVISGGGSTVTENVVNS
# Experimental: Oocytes were injected with poly(A)^+ -enriched mRNA from human parathyroid tissue (hyperplastic glands from a case of secondary HPT).
# (§1) Following incubation, an oocyte was placed into a 100-μl plastic chamber and superfused with MBS at a flow rate of 0.5 ml/min using a peristaltic pump. Test molecules or inorganic polycations were added by rapidly moving the tubing into different buffers. Recording and current-passing electrodes were constructed from thin-wall capillary tubing pulled to a resistance of 1-3 Mohms and filled with 3 M KCl. […] Currents were recorded directly onto a strip chart recorder.
# Using this screen allows one to test for an action directly on the calcium receptor. Oocytes expressing the calcium receptor also responded to several molecules active on intact parathyroid cells when screened as follows. […] This offers rather compelling evidence showing that these molecules act on the calcium receptor or on some other protein intimately associated with its function.
# [3] = target: T3, parathyroid cell calcium receptor (Bos taurus, UniProt P35384); assay: cell-based; conditions: for effect on mobilization elicited by extracellular divalent cations / effect on [Ca2+]i at low extracellular Ca2+: 100 μM; for effect on [Ca2+]i at low extracellular Ca2+: 0.5 mM extracellular Ca2+
# T3 sequence (P35384 20-1085): T1 sequence (P35384 20-1085)
# Experimental: For example,. bovine parathyroid cells loaded with fura-2 are initially suspended in buffer containing 0.5 mM CaCl2. A test substance is added to the cuvette in a small volume (5-15 μl) and changes in the fluorescence signal are measured. Cumulative increases in the concentration of the test substance are made in the cuvette until some predetermined concentration is achieved or no further changes in fluorescence are noted.
# Human parathyroid glands, were obtained from patients undergoing surgical removal of parathyroid tissue for primary or uremic hyperparathyroidism (uremic HPT), and were treated similarly to bovine tissue.
# The cells were then pelleted, resuspended in the same buffer, but lacking the ester, and incubated a further 15 minutes at 37° C. The cells were subsequently washed twice with PCB containing 0.5 mM CaCl2 and 0.5% BSA and maintained at room temperature (about 20° C.). Immediately before use, the cells were diluted five-fold with prewarmed 0.5 mM CaCl2 -PCB to obtain a final BSA concentration of 0.1%. The concentration of cells in the cuvette used for fluorescence recording was 1-2×10^6 /ml.
# The fluorescence of indicator-loaded cells was measured at 37° C. in a spectrofluorimeter (Biomedical Instrumentation Group, University of Pennsylvania, Philadelphia, Pa.) equipped with a thermostated cuvette holder and magnetic stirrer using excitation and emission wavelengths of 340 and 510 nm, respectively. […] Leakage of dye is dependent on temperature and most occurs within the first 2 minutes after warming the cells in the cuvette. Dye leakage increases only very slowly thereafter. To correct the calibration for dye leakage, cells were placed in the cuvette and stirred at 37° C. for 2-3 minutes. The cell suspension was then removed, the cells pelleted, and the supernatant returned to a clean cuvette. […] This estimate was subtracted from the apparent Fmin.
# [4] = test system: Ca2+ influx in parathyroid cells; assay: Ca2+ influx in bovine parathyroid cells; conditions: for effect on [Ca2+]i: 100 to 1000 μM, 2 mM CaCl2; for effect on extracellular Ca2+-elicited increases in [Ca2+]i: pretreatment
# [5] = target: T3, parathyroid cell calcium receptor; assay: block of extracellular Ca2+-induced increases in [Ca2+]i in bovine parathyroid cells
# [6] = target: T3, parathyroid cell calcium receptor; assay: Cl- current in Xenopus oocytes injected with bovine parathyroid cell mRNA; set-up: Whole pieces of gland were used to prepare mRNA that directs the expression of the calcium receptor in Xenopus oocytes; expressed in transfected cells; host or cells: Xenopus laevis oocytes injected with parathyroid poly(A)+ mRNA; conditions: oocytes expressing parathyroid calcium receptor, fendiline 100 μM
# Experimental: as §1
smiles,measurement,setting,value
O=C(O)c1c2ccccc2cc2ccccc12 [Compound 9AC],effect on inward currents,[1],blocks the currents
CC(Cc1ccccc1)NCCC(c1ccccc1)c1ccccc1 (stereo not drawn) [Prenylamine],effect on [Ca2+]i in osteoclasts,[2],mobilization of [Ca^2+ ]i
"C1CNCCNCCNCCNCCNCCN1 [Hexacyclen, 1,4,7,10,13,16-hexaaza-cyclooctadecane]",mobilization of intracellular Ca2+ in oocytes,calcium receptor,caused the mobilization of intracellular Ca^2+
same,potency increase relative to pentaethylenehexamine,[3]; ring structure vs straight chain,25 fold
"NCCCN(CCCN)CCCNCCCCNCCCN(CCCN)CCCN [NPS 382, N^1,N^1,N^5,N^14,N^14-tetrakis-(3-aminopropyl)spermine]",mobilization of intracellular Ca2+ in oocytes,calcium receptor,also effective
same,effect on [Ca2+]i,[3],mobilize intracellular Ca^2+
same,"relative potency, in words",[3]; parathyroid cells,about twice as potent as NPS 381
"NCCCCCCCCCCCCN [1,12-diaminododecane (DADD), 1,12-diaminododecane]",effect on [Ca2+]i,[4],causes a prompt fall in [Ca^2+ ]i
same,effect on extracellular Ca2+-elicited increases in [Ca2+]i,[4],"depresses steady-state, but not transient increases in [Ca^2+ ]i"
O=C(O)CN(CCOCCOCCN(CC(=O)O)CC(=O)O)CC(=O)O [EGTA],effect on inward currents,[1],prevents oocytes expressing the calcium receptor from responding
NCCCCCCCCCCCCNC(=O)Cc1ccc(O)cc1O [NPS 021],effect on extracellular Ca2+-elicited increase in [Ca2+]i,[5]; 200 μM,inhibited the increase in [Ca^2+ ]i
same,effect on basal [Ca2+]i,[5]; 0.5 mM CaCl2,caused no change in [Ca^2+ ]i; also recorded: does not by itself cause any change in [Ca^2+ ]i
same,effect on extracellular Ca2+-evoked increase in [Ca2+]i,[5]; around 500 μM,abolished
CNc1ccc2oc(C[C@H]3O[C@@]4(CC[C@H]3C)O[C@H]([C@H](C)C(=O)c3ccc[nH]3)[C@H](C)C[C@H]4C)nc2c1C(=O)O [Compound A23187],effect on inward currents,[1],activated
COc1ccc(CCN(C)CCCC(C#N)(c2cc(OC)c(OC)c(OC)c2)C(C)C)cc1OC [Compound D-600],effect on influx of extracellular Ca2+,[4]; 100 μM,blocked the influx of extracellular Ca^2+
same,mode of action at the calcium receptor,[3],partial agonists or allosteric activators
same,effect on mobilization elicited by extracellular divalent cations,[3],potentiated the mobilization of intracellular Ca^2+
same,effect on [Ca2+]i at low extracellular Ca2+,[3],evoked no change
COc1ccc(CC(=O)NCCCCCCCCCCCCN)cc1OC [NPS 384],effect on influx of extracellular Ca2+,[4]; 300 μM,blocked influx of extracellular Ca^2+
same,effect on [Ca2+]i,[4],causes a prompt fall in [Ca^2+ ]i
same,effect on extracellular Ca2+-elicited increases in [Ca2+]i,[4],"depresses steady-state, but not transient increases in [Ca^2+ ]i"
same,effect on [Ca2+]i,[3]; NPS 384 300 μM,did not evoke an increase in [Ca^2+ ]i; also recorded: fails to do so
CC(NCCC(c1ccccc1)c1ccccc1)c1ccccc1 (racemic) [Fendiline],effect on Cl- current / intracellular Ca2+,[6],evokes the mobilization of intracellular Ca^2+
same,effect on Cl- current / intracellular Ca2+,[6]; listed as fendiline,evokes oscillatory increases in Cl^-; also recorded: elicits oscillatory increases in Cl^-
COc1cccc([C@H](C)NCCCc2ccccc2Cl)c1 [NPS S-568],concentration eliciting responses,"[1]; BoPCaR 1-injected oocytes, only at much higher concentrations",100 µM
NCCCCNCCCN [Spermidine],effect on [Ca2+]i in osteoclasts,[2],none of these caused any large increase in [Ca^2+ ]i
same,effect on [Ca2+]i,[3],mobilize intracellular Ca^2+
NCCCNCCCCNCCCNCCCN(O)CCCNC(=O)Cc1c[nH]c2ccccc12 [NPS 017],effect on Cl- current,[1]; BoPCaR 1-injected oocytes,caused oscillatory increases in the Cl^-
same,effect in control oocytes,"[1]; uninjected, water or rat liver mRNA oocytes",Neither NPS 017 nor NPS 019 elicited changes in Cl^-
CCN(CC)CCCCCCCCOC(=O)c1cc(OC)c(OC)c(OC)c1 [TMB-8],effect on influx of extracellular Ca2+,[4]; 100 μM,blocked the influx of extracellular Ca^2+
same,mode of action at the calcium receptor,[3],partial agonists or allosteric activators
same,effect on mobilization elicited by extracellular divalent cations,[3],potentiated the mobilization of intracellular Ca^2+; also recorded: potentiated transient increases in [Ca^2+ ]i
same,effect on [Ca2+]i at low extracellular Ca2+,[3],evoked no change
